Source: patent EP2752664A1, “Label-free method for the detection of analytes” (priority 2013, dated 2014)
Read-outs that look alike come from different tables or passages of the source.

Tests used:
[1] = target: T1, mannose/Concanavalin A interaction (Canavalia ensiformis, UniProt P02866); experiment: Inhibition competition assay with hydrogel particles, surface energy read out via RICM (SCP-RICM, inventive method); assay type: binding; conditions: for IC50: read-out: IC50 value determined using an inventive method
[2] = target: T1, mannose/Concanavalin A interaction; conditions: SPR measurements reported earlier; PAA Man values normalized per mannose; read-out: IC50 value determined using SPR inhibition assay; cited from earlier work

CO[C@H]1O[C@H](CO)[C@@H](O)[C@H](O)[C@@H]1O [α-methyl-D-mannose]
contact areas of functionalized hydrogel particles and surface energies ([1]; 10 mM analyte added into the measurement cell (critical level of competitive analyte)): completely vanish
surface energy ([1]; analyte at lower concentrations up to 5 mM, particles still in contact with the carrier surface): gradually decreases with the concentration of added analyte
IC50 ([1]; inverted system: PEG-ConA particles against a mannose functionalized surface (Fig. 7b)): 649 ± 76.8 µM
IC50 ([1]; mannose functionalized hydrogel particles, ConA immobilized on the solid carrier (Fig. 7a), Hill fit of normalized surface energy, PAA Man values normalized per mannose): 618 ± 19.1 µM
IC50 [2]: 750 µM
